Each block holds one molecule with its values, some of them ahead of it.
Columns and labels:
[1] = Phase I clinical trial, safety evaluation; format: in vivo, human; details: monotherapy, patients with solid tumors
Text: (§1) Drug: Compound B, tablets.
(§2) 1.1 Inclusion criteria: The main criteria include: (1) an age of 18-70 years old (including 18 years old and 70 years old) when signing an informed consent form; (2) patients with histopathologically or cytologically confirmed unresectable locally advanced or metastatic solid tumors, who have failed or are intolerant to standard treatments, or have no standard treatment regimens available as options; (3) the presence of at least one measurable lesion meeting RECIST v1.1 definition; (4) ECOG performance status (PS) score: 0-1; and so on.
(§3) (1) Dose escalation stage: initial doses: 1 mg, 2 mg, 4 mg, 6 mg, 9 mg, 12 mg, 16 mg, 20 mg, and 25 mg, administered orally once daily. After 7-days single administration stage, 28-days multiple administration stage began (continuous administration, with every 28 days constituting one cycle, until progressive disease or intolerable toxic reactions occurred). The subjects who had completed the treatment and observation for the 7-days single administration stage and the first cycle of the 28-days multiple administration stage, and who had acquired clinical benefit and could tolerate the drug treatment, could enter an extended treatment period based on their willingness. In the extended treatment period, every 4 weeks constituted one cycle.
(§4) (2) Dose expansion stage: 4 mg and 6 mg, administered orally once daily. For the continuous administration group, every 4 weeks constituted 1 cycle; for the group of 3-week administration and then 1-week interruption, every 4 weeks constituted one cycle; for the group of 2-week administration and then 1-week interruption, every 3 weeks constituted 1 cycle.
(§5) 1.3 Assessment of results: (1) Effectiveness evaluation: In this study, for the dose escalation stage, efficacy evaluation and data analysis were performed at the 4th week, 8th week and 12th week after the first day of the 28-days multiple administration stage and then every 8 weeks thereafter. […]

[2] = Grinding stability experiment; format: physicochemical; details: XRPD
[3] = test system: esophageal squamous cell carcinoma; assay: Phase I clinical trial, effectiveness evaluation; format: in vivo, human
Text: ORR: the percentage of subjects with complete remission (CR) and partial remission (PR) among all enrolled subjects from the date of the first dose.
DCR: defined as the percentage of subjects with CR, PR, or stable disease (SD) among all enrolled subjects from the date of the first dose.
PR: refers to partial remission, meaning that the sum of the diameters of target lesions has reduced by at least 30% compared to the baseline level.
as §1, §2, §3, §4, §5

Solubility experiment = details: for Solubility: deionized water, 25° C.
[4] = test system: pulmonary squamous cell carcinoma; assay: Phase I clinical trial, effectiveness evaluation; format: in vivo, human
Text: as §1, §2, §3, §4
(§6) 1.3 Assessment of results: (1) Effectiveness evaluation: In this study, for the dose escalation stage, efficacy evaluation and data analysis were performed at the 4th week, 8th week and 12th week after the first day of the 28-days multiple administration stage and then every 8 weeks thereafter. For the dose expansion stage, efficacy evaluation on the group of 3-week administration and then 1-week interruption was performed at the 4th week, 8th week and 12th week after the first day of the 28-days multiple administration stage and then every 8 weeks thereafter; efficacy evaluation on the group of 2-week administration and then 1-week interruption was performed every 6 weeks after the first day of the 28-days multiple administration stage. The indicators of effectiveness include objective response rate (ORR), progression-free survival (PFS), overall survival (OS), disease control rate (DCR), and duration of response (DOR). (2) Safety evaluation: including evaluation of vital signs and physical examinations, electrocardiograms, ECOG PS scores, laboratory tests, adverse events, and the like.

[5] = test system: nasopharyngeal squamous cell carcinoma; assay: Phase I clinical trial, effectiveness evaluation; format: in vivo, human
Text: as §1, §2, §3, §4, §6

[6] = Water sorption and desorption experiment (DVS hygroscopicity); format: physicochemical; details: relative humidity 40%-80%, 25° C.
Description: Instrument: DVS Intrinsic Plus (SMS, UK).
Method: a sample was placed in a tared sample basket, the weight of the sample was automatically measured, and the sample was analyzed according to the parameters in the table below.
The samples obtained in Example 2 and Example 3 were investigated for sorption and desorption of moisture under the relative humidity of 40%-80% at 25° C. using a dynamic vapor sorption (DVS) instrument to determine the hygroscopicity of various salt forms.

[7] = Solid stability experiment; format: physicochemical; details: for Crystalline form: XRPD, initial crystalline form I
Description: The sample obtained in Example 2 was investigated for physical stability and chemical stability under the conditions of 40° C./75% RH (open) and 60° C. (sealed) for 7 days, and for physical stability under the conditions of room temperature/92.5% RH (open) for 10 days.
Note: the “/” indicates undetected; the crystalline form results were obtained using the X-ray powder diffraction method.

[8] = of 41 patients with esophageal squamous cell carcinoma
[9] = 40° C./75% RH (open) for 7 days

Molecule: Fumarate
Solubility (Solubility experiment): 1.3 mg/mL
Hygroscopicity [6]: 2.11. %

Molecule: Maleate
Solubility (Solubility experiment): 2.0 mg/mL
Hygroscopicity [6]: 0.81%
Hygroscopicity (words) [6]: slightly hygroscopic

Molecule: Phosphate
Solubility (Solubility experiment): 3.5 mg/mL
Hygroscopicity [6]: 3.75%

The next lines start with results.

Crystalline form I after grinding ([2]; mechanically ground after dropwise addition of organic solvent (methanol, ethanol, acetone, acetonitrile, ethyl acetate, etc.)): not changed
Crystalline form I after grinding ([2]; mechanically ground using a mortar for 2 min): not changed
Crystalline form I after grinding ([2]; mechanically ground using a mortar for 5 min): not changed
Hygroscopicity [6]: 0.65%
Hygroscopicity (words) [6]: slightly hygroscopic
Purity [7, 9]: 99.86%
Crystalline form [7, 9]: Not changed
Chemical stability ([7]; 40° C./75% RH and 60° C. for 7 days): good chemical stability
Physical stability of crystalline form I ([7]; 40° C./75% RH, 60° C. for 7 days, 92.5% RH for 10 days): good physical stability
Purity ([7]; 60° C. (sealed) for 7 days): 99.85%
Crystalline form ([7]; 60° C. (sealed) for 7 days): Not changed
Purity ([7]; initial state, 0 day): 99.85%
Crystalline form ([7]; room temperature/92.5% RH (open) for 10 days): Not changed
Molecule: CNC(=O)c1cccc2cc(Oc3ccnc(NC(=O)c4ccc(N5C[C@@H](C)N[C@@H](C)C5)cc4)c3)ccc12 [Compound B]
Common (≥10%) adverse effects [1]: proteinuria, hypertension, hypoalbuminemia, decreased platelet count, decreased leukocyte count, increased alanine aminotransferase, increased aspartate aminotransferase, hyperuricemia, rash, anemia and fatigue
Overall safety [1]: overall safe and controllable
Severity of most adverse effects [1]: grade 2 or below
Response as of the latest assessment ([3]; Subject S03008, 6 mg QD continuous, in the 18th treatment cycle): remains in PR
Cases achieving PR [3, 8]: 6 cases
Cases achieving SD [3, 8]: 21 cases
Cases of SD showing target lesion reduction ([3]; of 41 patients with esophageal squamous cell carcinoma (21 SD)): 11 cases
Solubility in buffer compared to compound A (Solubility experiment; Na2HPO4-citric acid buffer (pH 4.6)): better solubility in the buffer compared to compound A
Target lesion reduction among SD cases ([4]; 4 SD cases of 5 patients with pulmonary squamous cell carcinoma): all of which showed target lesion reduction
Maximum reduction in the target lesion ([4]; Subject S09009, stage IV, 4 mg QD continuous): 10.7%
Cases achieving SD ([4]; of 5 patients with pulmonary squamous cell carcinoma): 4 cases
Target lesion reduction in SD case ([5]; 1 SD case of 2 patients with nasopharyngeal squamous cell carcinoma): also showed target lesion reduction
Maximum reduction in the target lesion ([5]; Subject S01001, stage IV, 2 mg (dose escalation) QD): 7.9%
Cases achieving SD ([5]; of 2 patients with nasopharyngeal squamous cell carcinoma): 1 case

Hygroscopicity [6]: 2.86%
Molecule: Tartrate

Reference: US20260174856A1, “USE OF HETEROARYLOXYNAPHTHALENE COMPOUND” (SHANGHAI RUNSHI MEDICAL TECHNOLOGY CO., LTD, priority 2022, published 2026)
